Patent publication US9233964B2, “Sulfamide piperazine derivatives as protein tyrosine kinase inhibitors and pharmaceutical use therof” (LEO PHARMA A/S, priority 2011, dated 2016)

Assays:
Assay type in all cases: biochemical
[1] = target: T1, TYK2 (Homo sapiens, UniProt P29597); assay: JAK kinase assay (HTRF, phosphorylation of synthetic peptide), TYK2; conditions: catalytic domain, ATP at Km (13 μM); read-out: TYK2 kinase inhibitory activity (EC50)
T1 construct: JAK1 (aa 850-1154) and TYK2 (aa 871-1187) are expressed with an N-terminally fused GST-tag; GST (N); purchased Carna Biosciences, Inc; host or cells: baculovirus expression system
T1 sequence (P29597 871-1187): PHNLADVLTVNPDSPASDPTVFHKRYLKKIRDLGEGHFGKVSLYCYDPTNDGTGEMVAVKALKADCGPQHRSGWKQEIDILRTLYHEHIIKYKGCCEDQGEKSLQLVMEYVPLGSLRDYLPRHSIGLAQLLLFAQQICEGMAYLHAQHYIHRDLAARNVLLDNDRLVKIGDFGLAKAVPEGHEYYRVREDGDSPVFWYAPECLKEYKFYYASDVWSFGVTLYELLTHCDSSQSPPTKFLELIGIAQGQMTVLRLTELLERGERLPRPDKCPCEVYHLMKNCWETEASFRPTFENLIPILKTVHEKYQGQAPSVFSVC
In short: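 1 µM biotinylated TK peptide at Km ATP in pH 7.0 Hepes, 20-30 min RT. EDTA stop; overnight streptavidin-XL665/cryptate HTRF read.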

[2] = target: T2, JAK2 (Homo sapiens, UniProt O60674); assay: JAK kinase assay (HTRF, phosphorylation of synthetic peptide), JAK2; conditions: catalytic domain, ATP at Km (4 μM); read-out: JAK2 kinase inhibitory activity (EC50)
T2 construct: All four purified enzymes contain only the catalytic domain; His (N); purchased Carna Biosciences, Inc; host or cells: baculovirus expression system
In short: (§1)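 Catalytic-domain human JAK1 (GST-tagged, aa 850-1154) or His-tagged JAK2, baculovirus-expressed, phosphorylated 1 µM biotinylated TK peptide at Km ATP (JAK1 7 µM, 10 mM MgCl2, 50 nM SEB; JAK2 4 µM, 5 mM MgCl2) in pH 7.0 Hepes, 20-30 min RT. EDTA stop; overnight streptavidin-XL665/cryptate HTRF read.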

[3] = target: T3, JAK1 (Homo sapiens, UniProt P23458); assay: JAK kinase assay (HTRF, phosphorylation of synthetic peptide), JAK1; conditions: catalytic domain, ATP at Km (7 μM); read-out: JAK1 kinase inhibitory activity (EC50)
T3 construct: JAK1 (aa 850-1154) and TYK2 (aa 871-1187) are expressed with an N-terminally fused GST-tag; GST (N); purchased Carna Biosciences, Inc; host or cells: baculovirus expression system
In short: as §1

[4] = target: T4, JAK3 (Homo sapiens, UniProt P52333); assay: JAK kinase assay (HTRF, phosphorylation of synthetic peptide), JAK3; conditions: catalytic domain, ATP at Km (2 μM); read-out: JAK3 kinase inhibitory activity (EC50)
T4 construct: All four purified enzymes contain only the catalytic domain; His (N); purchased Carna Biosciences, Inc; host or cells: baculovirus expression system
T4 sequence (P52333 822-1111 limits assumed): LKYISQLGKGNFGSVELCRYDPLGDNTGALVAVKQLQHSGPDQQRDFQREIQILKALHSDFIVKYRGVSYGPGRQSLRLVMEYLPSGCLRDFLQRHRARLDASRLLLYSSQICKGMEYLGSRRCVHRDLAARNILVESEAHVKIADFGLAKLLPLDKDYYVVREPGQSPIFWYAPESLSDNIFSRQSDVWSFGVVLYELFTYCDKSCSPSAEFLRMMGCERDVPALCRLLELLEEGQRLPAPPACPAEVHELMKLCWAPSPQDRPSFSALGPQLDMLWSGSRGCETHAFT

T2 sequence (O60674 849-1124 limits assumed): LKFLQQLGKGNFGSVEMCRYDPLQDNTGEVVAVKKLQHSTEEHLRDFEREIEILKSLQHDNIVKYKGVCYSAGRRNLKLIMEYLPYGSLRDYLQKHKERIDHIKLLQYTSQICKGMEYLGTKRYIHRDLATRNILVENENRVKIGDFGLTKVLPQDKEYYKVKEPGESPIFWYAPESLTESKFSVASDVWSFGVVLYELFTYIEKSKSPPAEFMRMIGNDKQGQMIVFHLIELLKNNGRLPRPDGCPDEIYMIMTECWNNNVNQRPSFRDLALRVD
T3 sequence (P23458 850-1154): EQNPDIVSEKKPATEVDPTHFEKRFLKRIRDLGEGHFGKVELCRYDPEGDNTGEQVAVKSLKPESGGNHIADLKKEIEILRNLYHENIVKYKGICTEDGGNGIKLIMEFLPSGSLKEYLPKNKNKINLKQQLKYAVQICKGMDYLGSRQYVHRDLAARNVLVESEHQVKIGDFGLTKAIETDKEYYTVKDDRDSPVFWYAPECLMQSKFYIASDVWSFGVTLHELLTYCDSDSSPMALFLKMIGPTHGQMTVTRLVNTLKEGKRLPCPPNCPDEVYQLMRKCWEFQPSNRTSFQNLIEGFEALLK

EC50 [1] | EC50 [2] | EC50 [3] | EC50 [4] | SMILES
100 to 500 nM | < 100 nM | < 100 nM | < 100 nM | CN(CC1CCS(=O)(=O)C1)S(=O)(=O)N1CCN(c2ncnc3[nH]ccc23)CC12CC2 (centres unmarked) [Example 165, N-[(1,1-dioxothiolan-3-yl)methyl]-N-methyl-5-(7H-pyrrolo[2,3-d]pyrimidin-4-yl)-5,8-diazaspiro[2.5]octane-8-sulfonamide]
100 to 500 nM | < 100 nM | 100 to 500 nM | 100 to 500 nM | O=S(=O)(N1CCCCC1)N1CCN(c2ncnc3[nH]ccc23)CC12CC2 [Example 38, 4-[4-(Piperidine-1-sulfonyl)-4,7-diaza-spiro[2.5]oct-7-yl]-7H-pyrrolo[2,3-d]pyrimidine]
> 500 nM | < 100 nM | < 100 nM | 100 to 500 nM | N#CC1CCCN(S(=O)(=O)N2CCN(c3ncnc4[nH]ccc34)CC23CC3)C1 (centres unmarked) [Example 42, 1-[7-(7H-Pyrrolo[2,3-d]pyrimidin-4-yl)-4,7-diaza-spiro[2.5]octane-4-sulfonyl]-piperidine-3-carbonitrile]
100 to 500 nM | < 100 nM | < 100 nM | 100 to 500 nM | CN(C)C(=O)CN(C)S(=O)(=O)N1CCN(c2ncnc3[nH]ccc23)CC12CC2 [Example 36, N,N-Dimethyl-2-{methyl-[7-(7H-pyrrolo[2,3-d]pyrimidin-4-yl)-4,7-diaza-spiro[2.5]octane-4-sulfonyl]-amino}-acetamide]
100 to 500 nM | < 100 nM | < 100 nM | < 100 nM | O=S1(=O)CCC(CN(CCO)S(=O)(=O)N2CCN(c3ncnc4[nH]ccc34)CC23CC3)C1 (centres unmarked) [Example 167, N-[(1,1-dioxothiolan-3-yl)methyl]-N-(2-hydroxyethyl)-5-(7H-pyrrolo[2,3-d]pyrimidin-4-yl)-5,8-diazaspiro[2.5]octane-8-sulfonamide]
> 500 nM | 100 to 500 nM | 100 to 500 nM | > 500 nM | CN(CC1CCCNC1)S(=O)(=O)N1CCN(c2ncnc3[nH]ccc23)CC12CC2 (centres unmarked) [Int 27]
100 to 500 nM | < 100 nM | < 100 nM | 100 to 500 nM | CN(C[C@H]1CCCN1C(=O)CCC#N)S(=O)(=O)N1CCN(c2ncnc3[nH]ccc23)CC12CC2 [Example 187, N-[[(2R)-1-(3-cyanopropanoyl)pyrrolidin-2-yl]methyl]-N-methyl-5-(7H-pyrrolo[2,3-d]pyrimidin-4-yl)-5,8-diazaspiro[2.5]octane-8-sulfonamide]

Continued, compound first:

SMILES | EC50 [1] | EC50 [2] | EC50 [3] | EC50 [4]
CN(CC12C3C4C1C1C2C3C41C#N)S(=O)(=O)N1CCN(c2ncnc3[nH]ccc23)CC12CC2 (centres unmarked) [Example 177, N-[(4-cyanocuban-1-yl)methyl]-N-methyl-5-(7H-pyrrolo[2,3-d]pyrimidin-4-yl)-5,8-diazaspiro[2.5]octane-8-sulfonamide] | < 100 nM | < 100 nM | < 100 nM | < 100 nM
CCN(C(C)C)S(=O)(=O)N1CCN(c2ncnc3[nH]ccc23)CC12CC2 [Example 95, N-ethyl-N-isopropyl-5-(7H-pyrrolo[2,3-d]pyrimidin-4-yl)-5,8-diazaspiro[2.5]octane-8-sulfonamide] | > 500 nM | < 100 nM | 100 to 500 nM | 100 to 500 nM
CN(CCc1ccc(F)cc1)S(=O)(=O)N1CCN(c2ncnc3[nH]ccc23)CC12CC2 [Example 16, 7-(7H-Pyrrolo[2,3-d]pyrimidin-4-yl)-4,7-diaza-spiro[2.5]octane-4-sulfonic acid [2-(4-fluoro-phenyl)-ethyl]-methyl-amide] | 100 to 500 nM | < 100 nM | < 100 nM | < 100 nM
CN(C[C@H]1CCCN1C(=O)CCO)S(=O)(=O)N1CCN(c2ncnc3[nH]ccc23)CC12CC2 [Example 190, N-[[(2R)-1-(3-hydroxypropanoyl)pyrrolidin-2-yl]methyl]-N-methyl-5-(7H-pyrrolo[2,3-d]pyrimidin-4-yl)-5,8-diazaspiro[2.5]octane-8-sulfonamide] | 100 to 500 nM | < 100 nM | < 100 nM | 100 to 500 nM
O=S(=O)(N1CCN(c2ncnc3[nH]ccc23)CC12CC2)n1ccnc1 [Int 15] | > 500 nM | < 100 nM | 100 to 500 nM | > 500 nM
CN(CCOc1ccc(C#N)cc1)S(=O)(=O)N1CCN(c2ncnc3[nH]ccc23)CC12CC2 [Example 72, N-[2-(4-cyanophenoxy)ethyl]-N-methyl-5-(7H-pyrrolo[2,3-d]pyrimidin-4-yl)-5,8-diazaspiro[2.5]octane-8-sulfonamide] | > 500 nM | < 100 nM | < 100 nM | 100 to 500 nM
CN(C[C@@H]1CCCN1C=O)S(=O)(=O)N1CCN(c2ncnc3[nH]ccc23)CC12CC2 [Example 191, N-[[(2S)-1-formylpyrrolidin-2-yl]methyl]-N-methyl-5-(7H-pyrrolo[2,3-d]pyrimidin-4-yl)-5,8-diazaspiro[2.5]octane-8-sulfonamide] | 100 to 500 nM | < 100 nM | < 100 nM | < 100 nM
CN(CC1CCN(C(=O)C(O)CO)C1)S(=O)(=O)N1CCN(c2ncnc3[nH]ccc23)CC12CC2 (centres unmarked) [Example 127, N-[[1-(2,3-dihydroxypropanoyl)pyrrolidin-3-yl]methyl]-N-methyl-5-(7H-pyrrolo[2,3-d]pyrimidin-4-yl)-5,8-diazaspiro[2.5]octane-8-sulfonamide] | > 500 nM | < 100 nM | < 100 nM | 100 to 500 nM
CN(CC1CCCN(S(C)(=O)=O)C1)S(=O)(=O)N1CCN(c2ncnc3[nH]ccc23)CC12CC2 (centres unmarked) [Example 160, N-methyl-N-[(1-methylsulfonyl-3-piperidyl)methyl]-5-(7H-pyrrolo[2,3-d]pyrimidin-4-yl)-5,8-diazaspiro[2.5]octane-8-sulfonamide] | 100 to 500 nM | < 100 nM | < 100 nM | < 100 nM
CCOC(=O)CN(CCc1ccccc1)S(=O)(=O)N1CCN(c2ncnc3[nH]ccc23)CC12CC2 [Example 46, {Phenethyl-[7-(7H-pyrrolo[2,3-d]pyrimidin-4-yl)-4,7-diaza-spiro[2.5]octane-4-sulfonyl]-amino}-acetic acid ethyl ester] | > 500 nM | < 100 nM | < 100 nM | 100 to 500 nM
CN(C1CNC1)S(=O)(=O)N1CCN(c2ncnc3[nH]ccc23)CC12CC2 [Int 50] | > 500 nM | < 100 nM | < 100 nM | 100 to 500 nM
O=S(=O)(N(CCN1CCOCC1)C1CCC1)N1CCN(c2ncnc3[nH]ccc23)CC12CC2 [Example 106, N-cyclobutyl-N-(2-morpholinoethyl)-5-(7H-pyrrolo[2,3-d]pyrimidin-4-yl)-5,8-diazaspiro[2.5]octane-8-sulfonamide] | > 500 nM | < 100 nM | < 100 nM | 100 to 500 nM
N#CC1CCN(S(=O)(=O)N2CCN(c3ncnc4[nH]ccc34)CC23CC3)CC1 [Example 39, 1-[7-(7H-Pyrrolo[2,3-d]pyrimidin-4-yl)-4,7-diaza-spiro[2.5]octane-4-sulfonyl]-piperidine-4-carbonitrile] | > 500 nM | < 100 nM | < 100 nM | 100 to 500 nM
CN(C[C@H]1CCCN1S(C)(=O)=O)S(=O)(=O)N1CCN(c2ncnc3[nH]ccc23)CC12CC2 [Example 181, N-methyl-N-[[(2R)-1-methylsulfonylpyrrolidin-2-yl]methyl]-5-(7H-pyrrolo[2,3-d]pyrimidin-4-yl)-5,8-diazaspiro[2.5]octane-8-sulfonamide] | < 100 nM | < 100 nM | < 100 nM | < 100 nM
CN(C1CCC1)S(=O)(=O)N1CCN(c2ncnc3[nH]ccc23)CC12CC2 [Example 98, N-cyclobutyl-N-methyl-5-(7H-pyrrolo[2,3-d]pyrimidin-4-yl)-5,8-diazaspiro[2.5]octane-8-sulfonamide] | 100 to 500 nM | < 100 nM | < 100 nM | 100 to 500 nM
CN(Cc1ccc(S(C)(=O)=O)cc1)S(=O)(=O)N1CCN(c2ncnc3[nH]ccc23)CC12CC2 [Example 83, N-methyl-N-[(4-methylsulfonylphenyl)methyl]-5-(7H-pyrrolo[2,3-d]pyrimidin-4-yl)-5,8-diazaspiro[2.5]octane-8-sulfonamide] | < 100 nM | < 100 nM | < 100 nM | < 100 nM
